In PubChem BioAssay AID1963965 (Molecular Pharmacology Branch, DTP, NCI, 2024):

Test system: 996289-038-R-J1-PDC spheroid viability
Experiment: Anticancer human tumor 996289-038-R-J1-PDC patient-derived colon adenocarcinoma cell line growth inhibition [PI3K]
Conditions: spheroids with HUVEC and MSC; for IC50: curve of first compound; for viability, T/C: stronger effect = lower value
Summary of the method: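 Multi-cell spheroids combine tumor cells with HUVEC and human MSCs, treated with targeted agents alone or with inavolisib, alpelisib, duvelisib or copanlisib. Concentrations fall in half-log steps from at or near clinical Cmax, or from 10 microM where Cmax is unknown; viability read-out.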
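Note: spheroids exposed to compounds for seven days before viability read.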
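Throughout, for viability, T/C: luminescence used as a proxy for viable cell amount; percent viability relative to DMSO vehicle control as 100%.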

CNC(=O)c1ccc(N2C(=S)N(c3ccc(C#N)c(C(F)(F)F)c3)C(=O)C2(C)C)cc1F + COc1c(OCCCN2CCOCC2)ccc2c3n(c(=NC(=O)c4cnc(N)nc4)nc12)CCN3
IC50 (second compound 0.00316 µM): > 10 µM | IC50 (second compound 0.01 µM): > 10 µM | IC50 (second compound 0.0316 µM): > 10 µM | IC50 (second compound 0.1 µM): > 10 µM | IC50 (second compound 0.316 µM): < 0.0316 µM | IC50 (second compound 1 µM): < 0.0316 µM | viability, T/C (second compound 0.00316 µM, first compound 0.0316 µM): 103% | viability, T/C (second compound 0.00316 µM, first compound 0.1 µM): 92.2% | viability, T/C (second compound 0.00316 µM, first compound 0.316 µM): 93.2% | viability, T/C (second compound 0.00316 µM, first compound 1 µM): 106% | viability, T/C (second compound 0.00316 µM, first compound 3.16 µM): 99.4% | viability, T/C (second compound 0.00316 µM, first compound 10 µM): 125% | viability, T/C (second compound 0.01 µM, first compound 0.0316 µM): 98% | viability, T/C (second compound 0.01 µM, first compound 0.1 µM): 89.8% | viability, T/C (second compound 0.01 µM, first compound 0.316 µM): 103% | viability, T/C (second compound 0.01 µM, first compound 1 µM): 88.9% | viability, T/C (second compound 0.01 µM, first compound 3.16 µM): 87% | viability, T/C (second compound 0.01 µM, first compound 10 µM): 106% | viability, T/C (second compound 0.0316 µM, first compound 0.0316 µM): 82.5% | viability, T/C (second compound 0.0316 µM, first compound 0.1 µM): 78% | viability, T/C (second compound 0.0316 µM, first compound 0.316 µM): 81% | viability, T/C (second compound 0.0316 µM, first compound 1 µM): 67.5% | viability, T/C (second compound 0.0316 µM, first compound 3.16 µM): 89.4% | viability, T/C (second compound 0.0316 µM, first compound 10 µM): 92.4% | viability, T/C (second compound 0.1 µM, first compound 0.0316 µM): 66.5% | viability, T/C (second compound 0.1 µM, first compound 0.1 µM): 66.2% | viability, T/C (second compound 0.1 µM, first compound 0.316 µM): 64.8% | viability, T/C (second compound 0.1 µM, first compound 1 µM): 67.7% | viability, T/C (second compound 0.1 µM, first compound 3.16 µM): 58.7% | viability, T/C (second compound 0.1 µM, first compound 10 µM): 65.9% | viability, T/C (second compound 0.316 µM, first compound 0.0316 µM): 40.1% | viability, T/C (second compound 0.316 µM, first compound 0.1 µM): 33.2% | viability, T/C (second compound 0.316 µM, first compound 0.316 µM): 34.5% | viability, T/C (second compound 0.316 µM, first compound 1 µM): 39.8% | viability, T/C (second compound 0.316 µM, first compound 3.16 µM): 40.3% | viability, T/C (second compound 0.316 µM, first compound 10 µM): 27.6% | viability, T/C (second compound 1 µM, first compound 0.0316 µM): 21.8% | viability, T/C (second compound 1 µM, first compound 0.1 µM): 19.9% | viability, T/C (second compound 1 µM, first compound 0.316 µM): 18% | viability, T/C (second compound 1 µM, first compound 1 µM): 20.1% | viability, T/C (second compound 1 µM, first compound 3.16 µM): 19.1% | viability, T/C (second compound 1 µM, first compound 10 µM): 13.8%
